Experiments:
[1] = Lipophilicity of the compound assessed as retardation factor using hexane-ethyl acetate solvent system (5:2) on silica gel TLC plate system; type: physicochemical; settings: hexane-ethyl acetate (5:2)
Spodoptera litura = test: Antifeedant activity against Spodoptera litura third-instar larvae fed on compound treated fresh sweet potato leaves by dual choice leaf disk assay; type: functional
Daphnia magna = test: Toxicity against Daphnia magna after 12 hr post compound treatment; type: organism-based; settings: in vivo

| SMILES | Rf [1] | ED50 (Spodoptera litura) | pED50 (Spodoptera litura) | LD50 (Daphnia magna) [ppm] |
| --- | --- | --- | --- | --- |
| C=C(C)C1Cc2ccc(OC)cc2O1 (centres undefined) | 0.86 | 6.3 ×10⁻⁷ mol/cm2 | 6.2 |  |
| C=C(C)C1Cc2cc(C(C)=O)ccc2O1 (racemic) | 0.61 | 7.4 ×10⁻⁸ mol/cm2 | 7.13 |  |
| C=C(C)C1Cc2c(cc(OC)c(C(C)=O)c2OC)O1 (centres undefined) | 0.52 | 2.8 ×10⁻⁸ mol/cm2 | 7.55 |  |
| C=C(C)c1cc2cc(C(C)=O)c(O)cc2o1 [EUPARIN] | 0.76 | 1.2 ×10⁻⁹ mol/cm2 | 5.92 |  |
| C=C(C)C1Cc2c(OC)c(OC)c(OC)c(C(C)=O)c2O1 (centres undefined) | 0.52 | 1.6 ×10⁻⁸ mol/cm2 | 7.8 |  |
| C=C(C)C1Cc2ccccc2O1 (centres undefined) | 0.92 | 1.1 umol/cm2 | 5.96 |  |
| C=C(C)c1cc2cc(C(C)=O)c(OC)cc2o1 [MethylEuparin] | 0.66 | 6.1 ×10⁻⁸ mol/cm2 | 7.21 |  |
| C=C(C)C1Cc2c(cc(OC)c(C(C)=O)c2O)O1 (racemic) | 0.51 | 7.1 ×10⁻⁸ mol/cm2 | 7.15 |  |
| C=C(C)C1Cc2c(cc(OC)c(OC)c2OC)O1 (centres undefined) | 0.68 | 5.6 ×10⁻⁸ mol/cm2 | 7.25 |  |
| C=C(C)C1Cc2c(OC)cc(OC)cc2O1 (centres undefined) | 0.82 | 5.3 ×10⁻⁸ mol/cm2 | 7.28 |  |
| C=C(C)C1Cc2c(cc(OC)c(C(C)O)c2OC)O1 (centres undefined) | 0.83 | 1.1 ×10⁻⁷ mol/cm2 | 6.96 |  |
| C=C(C)C1Cc2cc(C(C)=O)c(OC)cc2O1 (centres undefined) | 0.62 | 4.2 ×10⁻⁸ mol/cm2 | 7.38 |  |
| COc1cc2c(c(OC)c1C(C)=O)CC(C(C)C)O2 (centres undefined) | 0.58 | 7.6 ×10⁻⁸ mol/cm2 | 7.12 |  |
| C=C(C)[C@@H]1Cc2c(cc(OC)c(C(C)=O)c2O)O1 [REMIROL] | 0.51 | 1.3 ×10⁻⁷ mol/cm2 | 6.89 |  |
| C=C(C)C1Cc2cc(OC)ccc2O1 (centres undefined) | 0.84 | 1.3 ×10⁻⁷ mol/cm2 | 6.89 |  |
| C=C(C)C1Cc2c(OC)cc(OC)c(C(C)=O)c2O1 (centres undefined) | 0.24 | 5.4 ×10⁻⁹ mol/cm2 | 8.27 | 9.1 |
